Experiments:
[1] = system: human epidermal carcinoma cell line A431; conditions: Journal of Antibiotics, Vol.39, p.170, 1986; cited from earlier work
PC3 = test: Selective in vitro inhibition of breast cancer and prostate cancer cell growth; assay type: cell-based; conditions: Homo sapiens, PC-3, 72 h; Prostate cancer PC3; 3 days; SRB; read-out: IC50, inhibition of cell proliferation
Procedure: (§1) 100 μl (containing 2,000 cells) of a cell suspension of various human cancer cell lines shown in [Table 7] was seeded in each well of the 96-well microtiter plates. The cells were incubated at 37° C. in a 5% carbon dioxide gas incubator. Next day, 100 μl of a 2 fold serial dilution of a compound solution was added to each well. The cultures were incubated for 3 days. The solution containing the compound was removed and the cells were washed with water. To the cells was added a 0.4% (V/W) dye SRB (dissolved in 1% acetic acid) solution to fix and stain the cell protein. The dye solution was removed and the fixed and stained cell protein was washed. The protein-bound dye was extracted with 200 μl of 10 mM Tris buffer. The optical density of the extracted dye was determined at the wavelength of 540 nm to estimate the quantity of the cells in terms of the protein quantity. Designating the protein quantity in the control to which no compound solution was added as 100%, the proportion of the residual protein quantity in each treated group was calculated, and IC50, which was the concentration of the compound required to inhibit the residual protein quantity to 50% the quantity of the control, was calculated.

MRC5 = test: as above; assay type: cell-based; conditions: Homo sapiens, 72 h; Normal MRC5; 3 days; SRB; read-out: IC50, inhibition of cell proliferation
Procedure: as §1

MCF-7 = test: as above; assay type: cell-based; conditions: Homo sapiens, MCF7, 72 h; Breast cancer MCF-7; 3 days; SRB; read-out: IC50, inhibition of cell proliferation
Procedure: as §1

T-47D = test: as above; assay type: cell-based; conditions: Homo sapiens, T47D, 72 h; Breast cancer T-47D; 3 days; SRB; read-out: IC50, inhibition of cell proliferation
Procedure: as §1

MDA-MB-453 [2] = test: as above; assay type: cell-based; conditions: Homo sapiens, 72 h; Breast cancer MDA-MB-453; 3 days; SRB; read-out: IC50, inhibition of cell proliferation
Procedure: as §1

LNCaP = test: as above; assay type: cell-based; conditions: Homo sapiens, 72 h; Prostate cancer LNCaP; 3 days; SRB; read-out: IC50, inhibition of cell proliferation
Procedure: as §1

[3] = system: human prostatic cancer cell line, LNCaP; test: In vivo inhibition of prostate cancer (1); set-up: species or system male Balb/C-strain athymic nude mice; conditions: for Tumor growth rate (%): oral, gained tumor volume vs control; for Inhibition of implanted tumor growth: LNCaP, athymic nude mice
Procedure: 5,000,000 cells of human prostatic cancer cell line, LNCaP, were suspended in a gelmatrix solution and implanted subcutaneously at the breast in 8-week old male Balb/C-strain athymic nude mice (Friedman R. et al., Proceedings of the National Academy of Sciences of the U.S.A. Vol. 87, pp.6698-6702, 1990). 42 days (in the case of compound 72) or 57 days (in the case of compound 109) after the implantation, the diameters of tumors were measured. Five mice per group with similar tumor size were used for the experiment. Compounds 72 or 109 of the present invention was suspended in a 5% gum arabic solution (physiological saline) and administered orally twice daily in a dose of 60 mg/kg and 90 mg/kg body weight for 10 days. After the completion of the dosing, the diameters of tumor were measured. The tumor volume was calculated by the following formula: volume of tumor=longest diameter×shortest diameter×shortest diameter×1/2. The growth rate of tumors was obtained as the proportion of the gained tumor volume which was subtracted the initial volume from the final volume in the treated animals to the gained tumor volume which was subtracted the initial volume from the final volume in the control animals. The body weights of mice administered with compounds of the present invention were measured during the experiment to observe no decrease.

MDA-MB-453 [4] = test: In vitro inhibition of cell proliferation (2); assay type: cell-based; conditions: Homo sapiens, 72 h; Breast cancer MDA-MB-453; 3 days; SRB
Procedure: (§2) 100 μl (containing 2,000 cells) of a cell suspension of human breast cancer cell line MDA-MB-453 was seeded in each well of the 96-well microtiter plates. The cultures were incubated at 37° C. in a 5% carbon dioxide gas incubator. On the next day, 100 μl of the 2-fold serial dilution of each compound solution was added to each well and the mixtures were cultured for 3 days. The solution containing the compound was removed and the cells were washed with water. To the cells was added a 0.4% (W/V) dye SRB (dissolved in 1% acetic acid) solution to fix and stain the cell protein (Skehan P. et al., Journal of the National Cancer Institute Vol.82, pp.1107-1112, 1990). The dye solution was removed and the fixed and stained cell protein was washed. The protein-bound dye was extracted with 200 μl of 10 mM Tris buffer. The optical density of the extracted dye was determined at the wavelength of 540 nm to estimate the quantity of the cells in terms of the protein quantity. Designating the protein quantity in the control to which no compound solution was added as 100%, the proportion of the residual protein quantity in each treated group was calculated, and IC50, which was concentration of the compound required to inhibit the residual protein quantity to 50% the quantity of the control, was calculated.

HER2 [5] = target: T1, HER2 (Homo sapiens, UniProt P04626); test: Inhibition of phosphorylation of receptor tyrosine in human breast cancer cells (2), MCF-7, heregulin-stimulated; assay type: cell-based; set-up: Human breast cancer cell line MCF-7 was used; endogenous in cells; host or cells: MCF-7; conditions: heregulin control = 100%, read-out: Phosphorylation of receptor tyrosine residue (%); for activity at 0.4 µM: MCF7, 0.4 μM; for activity at 1.6 µM: MCF7, 1.6 μM; for activity at 6.3 µM: MCF7, 6.3 μM; for activity at 25 µM: MCF7, 25 μM
Procedure: Human breast cancer cell line MCF-7 was used. 1,000 μl of the cell suspension (250,000 cells) was seeded in each well of the 24-well plates. The culture were incubated at 37° C. in a 5% carbon dioxide gas incubator. On the next day, 100 μl of the 10-fold serial dilution of each compound solution was added to each well and, 2 hours later, 0.5 μg/ml of heregulin was added to it. After 5 minutes the extract solution was added to it to terminate the reaction, and the protein fraction was extracted. The protein was fractionated by the protein electrophoresis. The protein in the electrophoretic gel was transferred to a nylon filter. The filter was allowed to react with the phosphorylated tyrosine-specific antibody. The reaction product was fluorescence-labeled to expose a photofilm. The intensity of the exposure on the photofilm was quantitated by an image-analyzing apparatus. The proportion of the phosphorylation of HER2 tyrosine in the cells added with a compound solution of each concentration was calculated designating the phosphorylation of HER2 tyrosine in the heregulin-added cells as 100%.
Target sequence in this assay (P04626 23-1255): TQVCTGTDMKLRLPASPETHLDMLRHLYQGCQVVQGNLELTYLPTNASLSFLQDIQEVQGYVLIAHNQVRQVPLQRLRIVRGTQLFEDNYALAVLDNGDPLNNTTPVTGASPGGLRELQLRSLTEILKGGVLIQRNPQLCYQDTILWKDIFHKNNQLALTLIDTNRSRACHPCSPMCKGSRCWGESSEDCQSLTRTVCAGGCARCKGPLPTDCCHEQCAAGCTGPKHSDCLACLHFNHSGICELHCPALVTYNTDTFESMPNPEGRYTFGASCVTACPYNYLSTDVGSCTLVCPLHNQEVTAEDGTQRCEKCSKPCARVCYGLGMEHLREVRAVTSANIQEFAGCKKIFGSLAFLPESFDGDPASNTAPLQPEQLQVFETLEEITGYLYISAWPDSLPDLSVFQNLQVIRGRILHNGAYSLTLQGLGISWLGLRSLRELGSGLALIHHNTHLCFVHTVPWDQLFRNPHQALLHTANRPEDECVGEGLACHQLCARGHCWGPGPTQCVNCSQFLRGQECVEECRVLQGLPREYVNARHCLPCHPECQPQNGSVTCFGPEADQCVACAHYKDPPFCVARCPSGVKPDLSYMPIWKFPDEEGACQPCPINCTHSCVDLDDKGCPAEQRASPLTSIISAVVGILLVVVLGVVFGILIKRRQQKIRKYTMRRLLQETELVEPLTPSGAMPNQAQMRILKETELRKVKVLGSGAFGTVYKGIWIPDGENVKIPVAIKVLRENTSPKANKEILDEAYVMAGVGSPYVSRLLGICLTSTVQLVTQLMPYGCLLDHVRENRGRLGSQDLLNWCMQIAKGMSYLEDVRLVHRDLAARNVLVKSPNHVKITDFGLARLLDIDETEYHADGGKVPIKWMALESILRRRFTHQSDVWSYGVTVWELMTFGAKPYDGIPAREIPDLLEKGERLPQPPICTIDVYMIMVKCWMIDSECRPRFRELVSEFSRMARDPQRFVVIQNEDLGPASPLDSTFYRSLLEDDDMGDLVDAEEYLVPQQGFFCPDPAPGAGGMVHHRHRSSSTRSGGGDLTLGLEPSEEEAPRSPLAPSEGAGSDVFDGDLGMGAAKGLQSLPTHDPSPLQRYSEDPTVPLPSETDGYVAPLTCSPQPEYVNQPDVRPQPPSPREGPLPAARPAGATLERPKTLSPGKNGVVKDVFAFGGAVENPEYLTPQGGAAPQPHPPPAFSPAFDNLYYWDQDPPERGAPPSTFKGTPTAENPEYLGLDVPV

[6] = system: human breast cancer cell line, MDA-MB-453; test: In vivo mammary cancer inhibiting effect (2); set-up: species or system female Balb/C strain athymic nude mice; conditions: oral, gained tumor volume vs control
Procedure: 5,000,000 cells of human breast cancer cell line, MDA-MB-453, were suspended in a gelmatrix solution. The suspension was subcutaneously implanted at the breast in 7-week-old female Balb/C strain athymic nude mice (Friedman R. et al., Proceedings of the National Academy of Sciences of the U.S.A. Vol. 87, pp.6698-6702, 1990). Twelve days after the implantation, the diameters of tumors were determined. For the experiment were used 5 mice per group with similar tumor size. Compound 72 or 109 of the present invention was suspended in a 5% gum arabic solution (physiological saline) and administered orally twice daily in dose of 60 mg/kg or 90 mg/kg body weight for 10 days. On the day when the dosing was ended, the diameters of tumors were measured. Tumor volume was calculated by the following formula: volume of tumor=longest diameter×shortest diameter×shortest diameter×1/2. The growth rate of tumors was obtained as the proportion of the gained tumor volume which was substracted the initial volume from the final volume in the treated animals to the gained tumor volume which was substracted the initial volume from the final volume in the control animals. The body weights of mice administered with compounds of the present invention were measured during the experiment to observe no decrease.

MDA-MB-453 [7] = test: In vitro inhibition of cell proliferation (1); assay type: cell-based; conditions: Homo sapiens, 72 h; Breast cancer MDA-MB-453; 3 days; SRB
Procedure: as §2

HER2 [8] = target: T1, HER2; test: Inhibition of the activity of human growth factor receptor (HER2) tyrosine kinase; assay type: biochemical; set-up: the tyrosine kinase domain of the human HER2 gene was cloned; made in house; host or cells: insect cell line SF-21 (recombinant insect virus vector); conditions: HER2 receptor type tyrosine kinase; ELISA with HER3 substrate; read-out: Concentration of inhibiting HER2 (IC50)
Source text: As enzyme standard, the tyrosine kinase domain of the human HER2 gene was cloned to prepare the recombinant gene of insect virus vector, with which the insect cell line SF-21 was infected to produce an enzyme protein (Guy P. M. et al., Journal of Biological Chemistry Vol. 267, pp.13851-13856, 1992). As substrate, the phosphorylated tyrosine domain of the HER3 protein was cloned to prepare the recombinant gene of plasmid vector with which Escherichia Coli strain JM109 was infected to give an enzyme protein (Sierke S. L. et al., Biochemistry Vol. 32, pp.10102-10108, 1993). The enzymatic reaction was performed by the enzyme-linked immunological method which consisted of fixing the substrate protein in wells of a 96-well microtiter plate, adding the enzyme into the wells and quantitating phosphorylated tyrosine, which was the reaction product, by use of the anti-phosphorylated tyrosine antibody (Cleaveland J. S. et al., Analytical Biochemistry Vol. 190, pp249-253, 1990).
Target sequence in this assay (P04626 720-987 limits assumed): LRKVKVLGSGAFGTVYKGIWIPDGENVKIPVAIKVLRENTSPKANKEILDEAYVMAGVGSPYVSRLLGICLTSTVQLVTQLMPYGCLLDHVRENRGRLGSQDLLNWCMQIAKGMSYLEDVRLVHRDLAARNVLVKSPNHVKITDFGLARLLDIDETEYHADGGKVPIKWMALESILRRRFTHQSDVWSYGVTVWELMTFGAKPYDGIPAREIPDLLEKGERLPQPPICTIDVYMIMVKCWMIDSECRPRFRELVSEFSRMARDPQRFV

[9] = system: human squamous cell carcinoma MH-85; conditions: Cancer Research, Vol.51, p.4430, 1991; cited from earlier work
[10] = 120 mg/kg/day, 60 mg/kg twice daily for 10 days
[11] = 180 mg/kg/day, 90 mg/kg twice daily for 10 days

Compound	Inhibition of proliferation [1]	IC50 (PC3) [µM]	IC50 (MRC5) [µM]	IC50 (MCF-7) [µM]	IC50 (T-47D) [µM]	IC50 (MDA-MB-453 [2]) [µM]	IC50 (LNCaP) [µM]	Tumor growth rate (%) [3, 10] [%]	Tumor growth rate (%) [3, 11] [%]	Inhibition of implanted tumor growth [3]	IC50 (MDA-MB-453 [4]) [µM]	activity at 0.4 µM (HER2 [5]) [%]	activity at 1.6 µM (HER2 [5]) [%]	activity at 6.3 µM (HER2 [5]) [%]	activity at 25 µM (HER2 [5]) [%]	Tumor growth rate (%) [6, 10] [%]	Tumor growth rate (%) [6, 11] [%]	IC50 (MDA-MB-453 [7]) [µM]	IC50 (HER2 [8]) [µM]	Antitumor activity in vivo [9]
O=CN/C=C/c1cc(O)ccc1O [erbstatin]	inhibits proliferation of human epidermal carcinoma cell line A431																			
c1csc(-c2nc(COc3ccc(CCCn4ccnc4)cc3)co2)c1 [Compound 72, 4-[4-[3-(1-imidazolyl)propyl]phenoxymethyl]-2-(2-thienyl)oxazole]		9.5	> 25	0.62	3.5	1.7	7.9	91	57	inhibiting tumor growth of hormone dependent prostate cancer LNCaP	1.7	96	48	19	7	84	71			
c1csc(-c2nc3cc(COc4ccc(CCCCn5ccnc5)cc4)ccc3o2)c1 [Compound 80, 5-[4-[4-(1-imidazolyl)butyl]phenoxymethyl]-2-(2-thienyl)benzoxazole]		6.5	> 25	0.01		0.09	1.6				0.09	46	40	34						
Cc1ccc(-c2nc(COc3ccc(CCCn4ccnc4)cc3)co2)s1 [Compound 109, 4-[4-[3-(1-imidazolyl)propyl]phenoxymethyl]-2-(5-methyl-2-thienyl)oxazole]		16	> 25	0.19		2.5	11	28		inhibiting tumor growth of hormone dependent prostate cancer LNCaP	2.5	92	89	43	31	35				
c1csc(-c2nc(COc3ccc(CCCn4ccnc4)cc3)cs2)c1 [Compound 94, 4-[4-[3-(1-imidazolyl)propyl]phenoxymethyl]-2-(2-thienyl)thiazole]		15	> 25	1.1		4.8	5.6				4.8	93	86	45	25					
C(=C\c1nc(COc2ccc(CCCCn3cncn3)cc2)co1)/c1ccccc1 [Compound 2, 1-[4-[4-[2-[(E)-2-phenylethenyl]-4-oxazolylmethoxy]phenyl]butyl]-1,2,4-triazole]																		0.66	67	
COc1cc2ncnc(Nc3cccc(Cl)c3)c2cc1OC [tyrphostin]																				has antitumor activity
